Assay results taken from patent publication US5405848A, “Substituted thiazolylaminotetrahydropyridopyrimidines derivatives useful as platelet aggregation inhibitors” (Ortho Pharmaceutical Corporation, priority 1993, dated 1995).

Key:
[1] = tested on: platelets; assay: Platelet Aggregation Inhibition Activity (gel-filtered platelets, thrombin or ADP agonist, light transmission); type: cell-based; details: 37° C.; for IC50: unit inferred
Procedure: The percentage of platelet aggregation is calculated as an increase in light transmission of drug treated platelet concentrate vs control treated platelet concentrate. Blood is obtained from drug free, normal donors and placed into tubes containing 0.13 M sodium citrate (two sources are routinely used: platelet concentrate obtained from Biological Specialty Corp., Lansdale, Pa. or whole blood obtained from donors). Platelet rich plasma (PRP) is collected by centrifugation of the concentrate or whole blood at 130 ×g for 15 min at 25° C. The PRP (5 mL) is gel filtered through Sepharose 2B (bed volume 50 mL), and the platelet count is adjusted to 2×10^7 platelets per sample. The following constituents are added to a siliconized cuvette: 250 μL of the concentrated platelet flitrate, 100 μL of Tyrode's buffer (0.14 M NaCl, 0.0027 M KCl, 0.012 M NaHCO3, 0.76 mM Na2HPO4, 0.0055 M glucose and 2 mg/mL BSA pH 7.4), 50 μL of 2 mM calcium and test drug […]. Aggregation is monitored in a dual channel Chrono-log Aggregometer for three minutes following the addition of agonist (thrombin 50 μL of 1 unit/mL, or ADP 50 μL of 100 μM). The final assay volume is 500 μL. The reaction takes place at 37° C. The peak aggregation response is calculated as the increase in light transmission units over a three minute period. The difference of the increase in light transmission between control and drug treated platelets is then expressed as a percent of the nondrug treated controls.

[2] = biological target: T1, fibrinogen receptor of blood platelets (activated platelets) (Homo sapiens, UniProt P05106+P08514); assay: Fibrinogen Binding (125I-fibrinogen binding to thrombin-activated platelets); details: 125I-fibrinogen 0.15 μM; for IC50: unit inferred
T1 construct: from tissue
T1 sequence (P08514 32-887 limits assumed): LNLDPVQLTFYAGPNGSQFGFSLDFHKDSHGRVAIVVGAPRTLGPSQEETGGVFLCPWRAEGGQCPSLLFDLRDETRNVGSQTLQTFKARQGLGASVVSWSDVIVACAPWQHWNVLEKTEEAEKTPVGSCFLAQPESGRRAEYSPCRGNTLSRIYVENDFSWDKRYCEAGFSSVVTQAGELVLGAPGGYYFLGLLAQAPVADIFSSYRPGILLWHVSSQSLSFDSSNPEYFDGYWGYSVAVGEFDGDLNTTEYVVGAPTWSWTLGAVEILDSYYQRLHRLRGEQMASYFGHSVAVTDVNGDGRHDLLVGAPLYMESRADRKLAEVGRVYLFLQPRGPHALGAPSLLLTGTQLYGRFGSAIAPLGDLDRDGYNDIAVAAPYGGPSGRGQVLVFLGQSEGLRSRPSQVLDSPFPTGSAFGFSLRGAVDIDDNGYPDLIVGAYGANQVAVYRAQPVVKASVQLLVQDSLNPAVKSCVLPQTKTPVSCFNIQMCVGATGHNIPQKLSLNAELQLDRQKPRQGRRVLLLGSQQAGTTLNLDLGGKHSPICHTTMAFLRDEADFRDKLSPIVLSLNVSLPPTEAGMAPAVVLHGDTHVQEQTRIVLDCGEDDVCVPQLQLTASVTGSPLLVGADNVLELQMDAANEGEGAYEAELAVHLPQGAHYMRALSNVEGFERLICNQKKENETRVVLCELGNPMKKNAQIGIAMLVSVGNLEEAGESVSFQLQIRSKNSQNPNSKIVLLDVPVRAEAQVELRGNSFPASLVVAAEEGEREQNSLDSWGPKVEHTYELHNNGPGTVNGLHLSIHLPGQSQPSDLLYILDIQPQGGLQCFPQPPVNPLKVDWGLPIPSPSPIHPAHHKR
T1 sequence (P08514 891-1039 partner limits assumed): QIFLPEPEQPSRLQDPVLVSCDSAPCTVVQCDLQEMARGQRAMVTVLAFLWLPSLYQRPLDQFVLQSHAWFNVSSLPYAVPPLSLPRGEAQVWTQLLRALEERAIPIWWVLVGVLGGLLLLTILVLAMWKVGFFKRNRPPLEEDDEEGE
T1 sequence (P05106 27-788): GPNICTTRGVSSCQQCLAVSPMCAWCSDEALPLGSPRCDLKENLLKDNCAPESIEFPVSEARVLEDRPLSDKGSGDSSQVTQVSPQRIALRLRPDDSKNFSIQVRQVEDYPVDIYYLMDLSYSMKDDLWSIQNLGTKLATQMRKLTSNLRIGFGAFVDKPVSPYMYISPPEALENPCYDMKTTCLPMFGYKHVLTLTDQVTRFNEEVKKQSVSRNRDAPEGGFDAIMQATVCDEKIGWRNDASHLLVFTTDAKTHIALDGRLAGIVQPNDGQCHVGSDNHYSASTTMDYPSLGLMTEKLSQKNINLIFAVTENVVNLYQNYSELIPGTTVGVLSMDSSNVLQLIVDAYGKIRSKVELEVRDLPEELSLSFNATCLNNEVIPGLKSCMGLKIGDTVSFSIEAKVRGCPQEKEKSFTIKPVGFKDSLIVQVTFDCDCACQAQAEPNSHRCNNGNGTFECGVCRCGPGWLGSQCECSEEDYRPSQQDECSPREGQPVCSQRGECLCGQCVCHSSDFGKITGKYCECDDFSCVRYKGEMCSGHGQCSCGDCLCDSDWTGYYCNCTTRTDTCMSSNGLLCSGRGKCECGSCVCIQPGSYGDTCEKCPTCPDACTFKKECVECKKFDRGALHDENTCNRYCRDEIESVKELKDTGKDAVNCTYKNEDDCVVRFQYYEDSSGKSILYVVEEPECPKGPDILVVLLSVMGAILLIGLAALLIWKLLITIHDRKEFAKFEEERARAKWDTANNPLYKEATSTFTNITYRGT
Procedure: The compounds of the invention as identified above are evaluated for platelet aggregation inhibition activity as indicated by the percentage of non-aggregated platelets which are available for binding in accordance with the following procedure.
^125 I-Fibrinogen binding to activated platelets is a modification of the procedure described by Bennett et al., 1988. Briefly, 40 mL of PRP are centrifuged at 120 ×g to remove contaminating red cells. Aspirin (50 μM) is added and the PRP is incubated at 37° C. for 20 minutes. The pH of the PRP is adjusted to 6.5 with 3.8% sodium citrate and 0.9 μM of PGE1 is added. Platelets are concentrated by a 300 ×g centrifugation (10 min) and the pellet is resuspended in 4 mL. of Tyrode's buffer. The platelet suspension (4 mL) is gel-filtered through a Sepharose-2B column (50 mL bed volume). The platelet count is adjusted to 1×10^8 platelets per 200 mL. The binding reaction is performed in polystyrene tubes (final volume 500 mL). Reagents are added in the following order: 80 mL of Tyrode's buffer, 50 mL of CaCl2 (final concentration (f.c.) […]) and 50 mL of thrombin (f.c. 0.1 unit/mL). The platelet suspension is then added and the mixture is allowed to incubate at room temperature for 2 minutes. Hirudin (50 mL, f.c. 0.5 unit/mL) is immediately added to prevent the catalytic activity of thrombin. Various concentrations of the compound to be tested […] with the competing radioligand ^125 I-fibrinogen (f.c. of 0.15 μM) are added. The mixture is incubated for 10 minutes at room temperature. To terminate the binding reaction the platelets are sedimented (10,000 ×g for 3 minutes) through silicone oil (3:1 hi-phenol 550/methyl silicone 200, W. F. Nye, Inc., New Bedford, Mass.), in an Eppendorf centrifuge.
The tips of the centrifuge tubes containing the pelleted platelets are cut off and counted for ^125 I-fibrinogen associated with the stimulated platelets. The amount of platelet radioactivity measured in the presence of nonlabeled fibrinogen (4 mg/mL) is considered the nonspecific binding.
Data are expressed as a percent at concentrations of 30 μM of specifically bound ^125 I-fibrinogen to the platelets in Table 5 below. Positive percentages of fibrinogen binding indicates higher activity for inhibiting platelet aggregation since only non-aggregated or free platelets are available for fibrinogen binding. Alternatively, a concentration is provided in lieu of a percentage to indicate the IC50 of concentration of compound which provides 50% fibrinogen binding.

Compound | inhibition at 20 µM [1] | IC50 [1] | inhibition at 30 µM [2] | IC50 [2]
Clc1ccc(-c2csc(Nc3nc4c(c(-c5ccccc5)n3)CNCC4)n2)cc1 [Cmpd 21] | 84% | 6.1 µM | 87% | 20.9 µM
COc1ccc(-c2csc(Nc3nc4c(c(-c5ccccc5)n3)CNCC4)n2)cc1 [Cmpd 18] | 25% |  |  | 
Fc1ccc(-c2csc(Nc3nc4c(c(-c5ccccc5)n3)CNCC4)n2)cc1 [Cmpd 20] | 87% | 5.8 µM | 95% | 20.9 µM
c1ccc(-c2csc(Nc3nc4c(c(-c5ccccc5)n3)CNCC4)n2)cc1 [Cmpd 13, 2-[4-Phenylthiazol-2-yl]amino-5,6,7,8-tetrahydro-4-phenylpyrimidino[4,5-d]pyridine] | 100% | 7.93 µM | 69% | 7.7 µM
Cc1ccc(-c2csc(Nc3nc4c(c(-c5ccccc5)n3)CNCC4)n2)cc1 [Cmpd 15, 2-[4-[4-Methylphenyl]thiazol-2-yl]amino-5,6,7,8-tetrahydro-4-phenylpyrimidino[4,5-d]pyridine] | 85% |  | 28% | 
Cc1ccc(-c2csc(Nc3nc4c(c(-c5ccccc5)n3)CN(C(=O)CCN3CCN(C)CC3)CC4)n2)cc1 [Cmpd 26] | 81% |  | 39% | 
O=C(c1ccccc1)N1CCc2nc(Nc3nc(-c4ccc(F)cc4)cs3)nc(-c3ccccc3)c2C1 [Cmpd 9] | 27% |  |  | 
CCCNCCC(=O)N1CCc2nc(Nc3nc(-c4cccc(Cl)c4)cs3)nc(-c3ccccc3)c2C1 [Cmpd 28] | 56% |  |  | 
Cc1ccc(-c2csc(Nc3ncc4c(n3)CCNC4)n2)cc1 [Cmpd 23] | 25% |  |  | 
c1ccc(-c2csc(Nc3ncc4c(n3)CCNC4)n2)cc1 [Cmpd 24] | 11% |  |  | 
